# Assay results taken from ChEMBL document CHEMBL1201862, “PubChem BioAssay data set” (2004).
# Activity calls are given as the source filed them.
# Legend:
# INS1 = assay: beta cell apoptosis inhibitors, cytokine rescue, dose response, luminescence, retest (AID 449756); type: functional, cell-based; conditions: Rattus norvegicus;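 further: cell death triggered by IL-1 beta plus TNF-alpha plus IFN-gamma mixture; protective hits raise ATP signal compared with cytokine alone wells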
# [1] = A375 melanoma cell viability loss, dose response, counter-screen for MITF inhibitor project, CellTiter-Glo luminescence, dry powder, set 4 (AID 624364); type: functional, cell-based; conditions: A-375;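 further: A375 melanoma cells are MITF independent so this is a counter screen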
# [2] = MITF Orthogonal Assay: MALME3 CTG Assay Measured in Cell-Based System Using Plate Reader - 2084-04_Inhibitor_Dose_DryPowder_Activity_Set6.; type: functional; conditions: MALME-3
# [3] = A375 melanoma cell cytotoxicity, dose response, counter-screen for MITF inhibitor project, CellTiter-Glo luminescence, dry powder, set 6 (AID 624488); type: functional, cell-based; conditions: A-375
# [4] = A375 melanoma cell viability loss, dose response, counter-screen for MITF modulator project, CellTiter-Glo luminescence, dry powder, set 9 (AID 651591); type: functional, cell-based; conditions: A-375
# [5] = A375 melanoma cell cytotoxicity, dose response, counter-screen for MITF inhibitor project, CellTiter-Glo luminescence, dry powder, set 2 (AID 624489); type: functional, cell-based; conditions: A-375;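 further: actives are compounds lowering A375 viability meaning general cytotoxicity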
# [6] = target: Bifunctional protein GlmU (Mycobacterium tuberculosis, UniProt P9WMN3); assay: Inhibitors of Mycobacterial Glucosamine-1-phosphate acetyl transferase (GlmU). Secondary screen.; set-up: species or system Mycobacterium tuberculosis H37Rv
# [7] = target: T1, Dual specificity protein phosphatase 6 (Rattus norvegicus, UniProt Q64346); assay: MKP-3 phosphatase inhibitors, primary screen, biochemical, rat enzyme, in vitro (AID 425)
# T1 sequence (Q64346 whole entry): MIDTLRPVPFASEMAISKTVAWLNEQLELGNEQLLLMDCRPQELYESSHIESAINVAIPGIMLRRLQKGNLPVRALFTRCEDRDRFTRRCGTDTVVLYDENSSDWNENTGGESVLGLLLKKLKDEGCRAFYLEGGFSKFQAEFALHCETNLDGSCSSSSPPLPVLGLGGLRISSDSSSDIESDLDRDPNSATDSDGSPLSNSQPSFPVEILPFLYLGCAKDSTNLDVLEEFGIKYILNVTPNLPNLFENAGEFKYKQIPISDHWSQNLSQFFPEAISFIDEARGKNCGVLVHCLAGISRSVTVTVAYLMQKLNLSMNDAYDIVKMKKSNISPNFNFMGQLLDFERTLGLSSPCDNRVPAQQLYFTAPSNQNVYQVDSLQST
# Orexin receptor type 2 [8] = target: T2, Orexin receptor type 2 (Homo sapiens, UniProt O43614); assay: Counterscreen assay for antagonists of the orexin 1 receptor (OX1R; HCRTR1): Fluorescence-based cell-based dose response assay for antagonists of the orexin 2 receptor (OX2R; HCRTR2), run by assay provider.; type: functional
# T2 sequence (O43614 whole entry): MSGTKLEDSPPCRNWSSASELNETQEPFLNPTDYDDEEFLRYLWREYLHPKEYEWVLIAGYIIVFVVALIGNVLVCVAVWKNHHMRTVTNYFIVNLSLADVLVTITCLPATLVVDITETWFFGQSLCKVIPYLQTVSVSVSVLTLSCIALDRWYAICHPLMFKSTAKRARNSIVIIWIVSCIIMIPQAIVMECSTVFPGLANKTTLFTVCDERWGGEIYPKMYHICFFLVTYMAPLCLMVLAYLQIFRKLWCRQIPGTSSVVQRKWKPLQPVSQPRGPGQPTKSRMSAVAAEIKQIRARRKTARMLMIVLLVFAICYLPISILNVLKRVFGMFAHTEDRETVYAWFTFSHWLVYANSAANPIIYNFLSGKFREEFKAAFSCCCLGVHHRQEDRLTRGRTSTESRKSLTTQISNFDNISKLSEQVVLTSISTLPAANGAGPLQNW
# Orexin receptor type 2 [9] = target: T2, Orexin receptor type 2; assay: Counterscreen assay for antagonists of the orexin 1 receptor (OX1R; HCRTR1): Homogeneous Time Resolved Fluorescence (HTRF)-based cell-based dose response assay for antagonists of the orexin 2 receptor (OX2R; HCRTR2), run by assay provider.; type: functional
# [10] = target: Megakaryocyte-associated tyrosine-protein kinase (Homo sapiens, UniProt P42679); type: functional;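 further: affinity measured as one member of a kinase panel (Navigating the Kinome) against MATK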
# [11] = target: Phosphorylase b kinase gamma catalytic chain, liver/testis isoform (Homo sapiens, UniProt P15735); type: functional;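 further: PHKG2 measured as one member of a kinome-wide kinase panel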
# [12] = target: Serine/threonine-protein kinase 17A (Homo sapiens, UniProt Q9UEE5); type: functional
# [13] = target: Casein kinase I isoform alpha (Homo sapiens, UniProt P48729); type: functional
# [14] = target: Tyrosine-protein kinase Lyn (Homo sapiens, UniProt P07948); type: functional;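 further: lyn as one member of a kinase panel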
# [15] = target: Non-receptor tyrosine-protein kinase TYK2 (Homo sapiens, UniProt P29597); type: functional
# [16] = target: MAP kinase-activated protein kinase 3 (Homo sapiens, UniProt Q16644); type: functional;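 further: value comes from a kinome-wide profiling panel in which MAPKAPK3 is one of the panel members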
# [17] = target: Serine/threonine-protein kinase Chk1 (Homo sapiens, UniProt O14757); type: functional;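 further: measured as one member of a kinome-wide kinase profiling panel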
# [18] = target: Vascular endothelial growth factor receptor 2 (Homo sapiens, UniProt P35968); type: functional
# [19] = target: Mitogen-activated protein kinase 1 (Homo sapiens, UniProt P28482); type: functional
# Focal adhesion kinase 1 = Focal adhesion kinase 1 (Homo sapiens, UniProt Q05397); type: functional;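 further: measured as one member of a kinome panel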
# [20] = target: RAC-alpha serine/threonine-protein kinase (Homo sapiens, UniProt P31749); type: functional;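 further: AKT1 affinity measured as one member of a kinome-wide kinase profiling panel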
# [21] = target: Cyclin-dependent kinase 9 (Homo sapiens, UniProt P50750); type: functional;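 further: value from the CDK9 entry of a kinome-spanning kinase panel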
# [22] = target: Tyrosine-protein kinase FRK (Homo sapiens, UniProt P42685); type: functional;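 further: FRK tested as one member of a kinome panel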
# Tyrosine-protein kinase FRK, sequence (P42685 whole entry): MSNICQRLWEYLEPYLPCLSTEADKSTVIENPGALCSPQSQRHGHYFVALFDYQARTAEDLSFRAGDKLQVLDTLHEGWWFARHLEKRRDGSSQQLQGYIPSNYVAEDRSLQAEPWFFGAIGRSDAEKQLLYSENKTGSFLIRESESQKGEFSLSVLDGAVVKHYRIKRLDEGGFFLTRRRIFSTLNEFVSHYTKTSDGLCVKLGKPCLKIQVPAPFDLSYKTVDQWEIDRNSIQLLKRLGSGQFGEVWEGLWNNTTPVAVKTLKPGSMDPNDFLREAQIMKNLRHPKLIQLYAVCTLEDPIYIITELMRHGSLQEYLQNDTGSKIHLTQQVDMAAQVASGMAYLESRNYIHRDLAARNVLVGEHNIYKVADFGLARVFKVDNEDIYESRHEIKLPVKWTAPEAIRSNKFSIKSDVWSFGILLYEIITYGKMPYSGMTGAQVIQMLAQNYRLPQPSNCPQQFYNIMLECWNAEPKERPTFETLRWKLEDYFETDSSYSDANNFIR
# Megakaryocyte-associated tyrosine-protein kinase, sequence (P42679 whole entry, canonical isoform): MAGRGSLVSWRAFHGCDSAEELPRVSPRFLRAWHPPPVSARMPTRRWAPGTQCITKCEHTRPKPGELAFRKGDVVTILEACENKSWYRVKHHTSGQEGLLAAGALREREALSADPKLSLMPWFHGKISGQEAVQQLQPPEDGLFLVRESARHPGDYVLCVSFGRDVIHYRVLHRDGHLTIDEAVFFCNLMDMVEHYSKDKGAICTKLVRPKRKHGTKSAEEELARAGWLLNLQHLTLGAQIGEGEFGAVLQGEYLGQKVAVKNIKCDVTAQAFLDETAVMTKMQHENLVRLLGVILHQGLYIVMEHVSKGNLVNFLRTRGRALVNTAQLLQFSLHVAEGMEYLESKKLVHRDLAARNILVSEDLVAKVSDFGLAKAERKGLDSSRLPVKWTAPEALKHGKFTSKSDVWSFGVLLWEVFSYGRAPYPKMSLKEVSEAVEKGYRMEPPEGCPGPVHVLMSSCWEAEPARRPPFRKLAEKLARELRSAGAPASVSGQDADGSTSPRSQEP
# Phosphorylase b kinase gamma catalytic chain, liver/testis isoform, sequence (P15735 whole entry, canonical isoform): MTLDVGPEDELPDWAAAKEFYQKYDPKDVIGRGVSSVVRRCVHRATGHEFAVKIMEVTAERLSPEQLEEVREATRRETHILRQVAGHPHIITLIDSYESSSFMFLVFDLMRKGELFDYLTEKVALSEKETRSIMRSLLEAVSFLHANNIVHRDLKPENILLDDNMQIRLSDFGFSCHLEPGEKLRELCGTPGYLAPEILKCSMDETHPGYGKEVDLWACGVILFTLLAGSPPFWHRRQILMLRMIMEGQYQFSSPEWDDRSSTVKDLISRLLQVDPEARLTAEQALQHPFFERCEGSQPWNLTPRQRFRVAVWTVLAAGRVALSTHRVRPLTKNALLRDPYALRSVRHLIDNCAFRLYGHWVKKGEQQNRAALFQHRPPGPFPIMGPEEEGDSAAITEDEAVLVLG
# Casein kinase I isoform alpha, sequence (P48729 whole entry, canonical isoform): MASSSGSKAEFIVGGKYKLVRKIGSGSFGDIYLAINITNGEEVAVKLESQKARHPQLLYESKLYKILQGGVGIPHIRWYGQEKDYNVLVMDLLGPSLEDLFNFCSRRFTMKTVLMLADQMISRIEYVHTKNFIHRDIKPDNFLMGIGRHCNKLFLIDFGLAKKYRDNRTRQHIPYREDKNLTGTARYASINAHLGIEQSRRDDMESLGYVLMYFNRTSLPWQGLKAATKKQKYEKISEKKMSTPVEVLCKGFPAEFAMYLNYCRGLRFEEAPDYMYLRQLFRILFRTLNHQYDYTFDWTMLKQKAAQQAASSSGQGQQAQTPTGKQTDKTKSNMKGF
# Bifunctional protein GlmU, sequence (P9WMN3 whole entry): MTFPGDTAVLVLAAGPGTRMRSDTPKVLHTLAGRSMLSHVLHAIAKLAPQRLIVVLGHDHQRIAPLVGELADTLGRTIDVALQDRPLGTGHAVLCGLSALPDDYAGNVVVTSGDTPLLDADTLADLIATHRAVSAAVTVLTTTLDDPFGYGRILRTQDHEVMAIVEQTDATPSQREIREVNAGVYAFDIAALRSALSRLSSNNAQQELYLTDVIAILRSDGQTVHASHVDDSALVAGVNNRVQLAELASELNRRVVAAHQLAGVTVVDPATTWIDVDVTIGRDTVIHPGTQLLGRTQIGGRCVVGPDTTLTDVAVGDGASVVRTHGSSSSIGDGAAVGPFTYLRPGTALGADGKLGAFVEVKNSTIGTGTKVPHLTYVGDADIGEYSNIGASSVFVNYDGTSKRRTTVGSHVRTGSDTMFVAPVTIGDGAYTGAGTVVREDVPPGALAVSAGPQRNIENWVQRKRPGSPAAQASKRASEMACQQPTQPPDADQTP
# Serine/threonine-protein kinase Chk1, sequence (O14757 whole entry): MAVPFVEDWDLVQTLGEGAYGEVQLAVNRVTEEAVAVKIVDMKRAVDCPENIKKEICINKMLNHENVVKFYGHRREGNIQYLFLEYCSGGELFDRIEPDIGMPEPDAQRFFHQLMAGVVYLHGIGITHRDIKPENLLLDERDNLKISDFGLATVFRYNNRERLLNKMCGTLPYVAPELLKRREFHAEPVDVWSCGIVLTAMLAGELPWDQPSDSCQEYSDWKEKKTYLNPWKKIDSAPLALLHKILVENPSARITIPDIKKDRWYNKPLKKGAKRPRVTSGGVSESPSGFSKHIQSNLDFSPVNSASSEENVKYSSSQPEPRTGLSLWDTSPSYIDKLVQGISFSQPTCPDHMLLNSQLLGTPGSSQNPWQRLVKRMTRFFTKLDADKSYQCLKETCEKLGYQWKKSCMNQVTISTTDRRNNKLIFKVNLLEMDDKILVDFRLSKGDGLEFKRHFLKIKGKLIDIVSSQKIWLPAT
# Tyrosine-protein kinase Lyn, sequence (P07948 whole entry): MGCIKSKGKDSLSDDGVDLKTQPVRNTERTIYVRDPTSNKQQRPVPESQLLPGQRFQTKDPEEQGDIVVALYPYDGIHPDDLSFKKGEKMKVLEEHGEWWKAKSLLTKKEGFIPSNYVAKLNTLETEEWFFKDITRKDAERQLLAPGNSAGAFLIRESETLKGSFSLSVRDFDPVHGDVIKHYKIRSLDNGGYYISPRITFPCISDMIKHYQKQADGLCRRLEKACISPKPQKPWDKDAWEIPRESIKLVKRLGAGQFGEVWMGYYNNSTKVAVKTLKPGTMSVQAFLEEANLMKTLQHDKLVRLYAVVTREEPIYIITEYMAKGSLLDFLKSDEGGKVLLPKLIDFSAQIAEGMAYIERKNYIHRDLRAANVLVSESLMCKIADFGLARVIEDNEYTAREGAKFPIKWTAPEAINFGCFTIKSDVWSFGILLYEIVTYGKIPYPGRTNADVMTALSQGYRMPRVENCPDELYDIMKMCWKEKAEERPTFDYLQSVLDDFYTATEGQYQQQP
# Cyclin-dependent kinase 9, sequence (P50750 whole entry): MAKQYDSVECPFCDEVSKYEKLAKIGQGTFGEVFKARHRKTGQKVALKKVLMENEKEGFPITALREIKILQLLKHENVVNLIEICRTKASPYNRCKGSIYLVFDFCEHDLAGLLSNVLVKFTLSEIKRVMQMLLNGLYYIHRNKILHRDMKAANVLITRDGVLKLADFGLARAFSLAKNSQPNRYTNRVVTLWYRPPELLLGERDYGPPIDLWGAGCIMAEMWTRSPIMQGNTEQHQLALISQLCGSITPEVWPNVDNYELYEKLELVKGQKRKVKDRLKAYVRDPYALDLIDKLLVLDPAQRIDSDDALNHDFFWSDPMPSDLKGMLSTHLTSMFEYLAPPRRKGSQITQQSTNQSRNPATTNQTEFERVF
# Vascular endothelial growth factor receptor 2, sequence (P35968 whole entry): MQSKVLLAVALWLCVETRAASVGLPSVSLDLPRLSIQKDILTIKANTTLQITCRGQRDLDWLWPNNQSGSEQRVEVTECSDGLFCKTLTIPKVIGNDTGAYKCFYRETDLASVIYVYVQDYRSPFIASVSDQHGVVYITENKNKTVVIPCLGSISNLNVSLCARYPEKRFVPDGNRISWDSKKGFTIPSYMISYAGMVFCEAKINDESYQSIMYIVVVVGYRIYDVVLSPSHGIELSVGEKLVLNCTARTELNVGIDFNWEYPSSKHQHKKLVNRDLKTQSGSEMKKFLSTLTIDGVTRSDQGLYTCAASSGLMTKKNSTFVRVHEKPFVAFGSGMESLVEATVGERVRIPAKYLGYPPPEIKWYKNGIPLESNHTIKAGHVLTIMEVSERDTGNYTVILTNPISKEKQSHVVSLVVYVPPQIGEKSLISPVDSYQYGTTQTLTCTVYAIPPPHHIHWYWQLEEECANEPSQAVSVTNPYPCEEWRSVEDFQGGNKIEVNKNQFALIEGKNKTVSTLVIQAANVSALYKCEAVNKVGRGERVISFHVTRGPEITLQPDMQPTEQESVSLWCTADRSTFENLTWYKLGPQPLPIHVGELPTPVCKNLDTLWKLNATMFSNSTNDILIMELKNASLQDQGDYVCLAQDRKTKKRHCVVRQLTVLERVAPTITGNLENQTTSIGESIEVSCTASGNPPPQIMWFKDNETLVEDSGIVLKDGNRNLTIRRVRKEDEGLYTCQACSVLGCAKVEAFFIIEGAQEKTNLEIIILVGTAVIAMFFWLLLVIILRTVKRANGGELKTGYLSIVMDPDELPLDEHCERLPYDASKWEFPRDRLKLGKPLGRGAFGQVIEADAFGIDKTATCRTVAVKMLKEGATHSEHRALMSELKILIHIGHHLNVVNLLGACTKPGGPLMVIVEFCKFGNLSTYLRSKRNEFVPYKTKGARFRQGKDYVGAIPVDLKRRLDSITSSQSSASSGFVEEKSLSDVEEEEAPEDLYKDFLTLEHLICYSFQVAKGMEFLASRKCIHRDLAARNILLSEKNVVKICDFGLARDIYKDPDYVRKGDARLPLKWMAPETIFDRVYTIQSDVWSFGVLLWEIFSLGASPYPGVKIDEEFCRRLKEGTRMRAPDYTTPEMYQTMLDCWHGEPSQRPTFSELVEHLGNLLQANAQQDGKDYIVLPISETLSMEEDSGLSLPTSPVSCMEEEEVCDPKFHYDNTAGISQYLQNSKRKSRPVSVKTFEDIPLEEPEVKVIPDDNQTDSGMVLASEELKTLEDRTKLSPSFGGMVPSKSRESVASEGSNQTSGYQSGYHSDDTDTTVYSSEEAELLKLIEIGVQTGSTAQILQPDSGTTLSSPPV
compound,measurement,setting,value
C=CCNC1=C(Cl)C(=O)c2ccccc2C1=O,AC50,INS1,7.64 µM (active)
same,AC50,[1],> 70 µM (inactive)
same,AC50,[2],9.99 µM (active)
same,AC50,[3],50.4 µM (active)
same,AC50,[4],> 70 µM (inactive)
same,AC50,[5],> 70 µM (inactive)
CS(=O)(=O)c1ccc2c(c1)SC1=NC(=O)/C(=C/c3ccc(O)c(O)c3)C(=N)N12,IC50,[6],159 µM (active)
same,IC50,[7],113 µM (not active)
CN(C)c1ccc(-c2nnc(-c3cccs3)o2)cc1,IC50,Orexin receptor type 2 [8],> 88.8 µM (inactive)
same,IC50,Orexin receptor type 2 [9],> 50 µM (inactive)
COc1ccc(C(=O)Nc2n[nH]c3ccc(-c4cn(Cc5ccccc5)nn4)cc23)cc1OC,Ki,[10],> 2 µM (inactive)
same,Ki,[11],0.316 µM (active)
same,Ki,[12],0.0501 µM (active)
same,Ki,[13],0.398 µM (active)
same,Ki,[14],0.501 µM (active)
same,Ki,[15],0.02 µM (active)
same,Ki,[16],> 10 µM (inactive)
same,Ki,[17],3.98 µM (active)
same,Ki,[18],0.398 µM (active)
same,Ki,[19],0.1 µM (active)
same,Ki,Focal adhesion kinase 1,> 6.31 µM (inactive)
same,Ki,[20],6.31 µM (active)
same,Ki,[21],0.501 µM (active)
same,Ki,[22],0.0794 µM (active)
